According to PubChem BioAssay AID1918998 (Molecular Pharmacology Branch, DTP, NCI, 2023):

Test system: 521955-158-R2-J5-PDC complex spheroid growth
Assay: Anticancer human tumor 521955-158-R2-J5-PDC patient-derived pancreatic carcinoma cell line growth inhibition [AhR]
Details: for IC50: curve of first compound; for viability, T/C: stronger effect = lower value
Summary of the method: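 Spheroids combined tumor cells with HUVEC endothelial cells and human MSCs as stroma. AhR antagonists were paired with standard or investigational drugs, each dosed in half-log steps down from near clinical Cmax, or from 10 microM where Cmax was unknown.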

[1] = second compound 0.1 µM, first compound 0.0316 µM
[2] = second compound 0.1 µM, first compound 0.1 µM
[3] = second compound 0.1 µM, first compound 0.316 µM
[4] = second compound 0.1 µM, first compound 1 µM
[5] = second compound 0.1 µM, first compound 3.16 µM
[6] = second compound 0.1 µM, first compound 10 µM
[7] = second compound 0.316 µM, first compound 0.0316 µM
[8] = second compound 0.316 µM, first compound 0.1 µM
[9] = second compound 0.316 µM, first compound 0.316 µM
[10] = second compound 0.316 µM, first compound 1 µM
[11] = second compound 0.316 µM, first compound 3.16 µM
[12] = second compound 0.316 µM, first compound 10 µM
[13] = second compound 1 µM, first compound 0.0316 µM
[14] = second compound 1 µM, first compound 0.1 µM
[15] = second compound 1 µM, first compound 0.316 µM
[16] = second compound 1 µM, first compound 1 µM
[17] = second compound 1 µM, first compound 3.16 µM
[18] = second compound 1 µM, first compound 10 µM
[19] = second compound 3.16 µM, first compound 0.0316 µM
[20] = second compound 3.16 µM, first compound 0.1 µM
[21] = second compound 3.16 µM, first compound 0.316 µM
[22] = second compound 3.16 µM, first compound 1 µM
[23] = second compound 3.16 µM, first compound 3.16 µM
[24] = second compound 3.16 µM, first compound 10 µM
[25] = second compound 10 µM, first compound 0.0316 µM
[26] = second compound 10 µM, first compound 0.1 µM
[27] = second compound 10 µM, first compound 0.316 µM
[28] = second compound 10 µM, first compound 1 µM
[29] = second compound 10 µM, first compound 3.16 µM
[30] = second compound 10 µM, first compound 10 µM
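For viability, T/C in this document: spheroids mix tumor cells with HUVEC endothelium and human MSC stroma; luminescence taken as viability surrogate after a week of drug exposure.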

CC1(C)CCC(CN2CCN(c3ccc(C(=O)NS(=O)(=O)c4ccc(NCC5CCOCC5)c([N+](=O)[O-])c4)c(Oc4cnc5[nH]ccc5c4)c3)CC2)=C(c2ccc(Cl)cc2)C1 + Cc1cncc(-c2nc(NCCc3c[nH]c4ccccc34)c3ncn(C(C)C)c3n2)c1
IC50 (second compound 0.1 µM): > 10 µM | IC50 (second compound 0.316 µM): > 10 µM | IC50 (second compound 1 µM): > 10 µM | IC50 (second compound 3.16 µM): > 10 µM | IC50 (second compound 10 µM): > 10 µM | viability, T/C [1]: 110% | viability, T/C [2]: 111% | viability, T/C [3]: 102% | viability, T/C [4]: 104% | viability, T/C [5]: 92.8% | viability, T/C [6]: 74.7% | viability, T/C [7]: 104% | viability, T/C [8]: 109% | viability, T/C [9]: 119% | viability, T/C [10]: 105% | viability, T/C [11]: 99.9% | viability, T/C [12]: 79.5% | viability, T/C [13]: 111% | viability, T/C [14]: 124% | viability, T/C [15]: 121% | viability, T/C [16]: 111% | viability, T/C [17]: 111% | viability, T/C [18]: 76.3% | viability, T/C [19]: 146% | viability, T/C [20]: 123% | viability, T/C [21]: 133% | viability, T/C [22]: 120% | viability, T/C [23]: 113% | viability, T/C [24]: 94.9% | viability, T/C [25]: 148% | viability, T/C [26]: 147% | viability, T/C [27]: 138% | viability, T/C [28]: 156% | viability, T/C [29]: 118% | viability, T/C [30]: 102%

CCN(c1cc(-c2ccc(CN3CCOCC3)cc2)cc(C(=O)NCc2c(C)cc(C)[nH]c2=O)c1C)C1CCOCC1 + Cc1cncc(-c2nc(NCCc3c[nH]c4ccccc34)c3ncn(C(C)C)c3n2)c1
IC50 (second compound 0.1 µM): > 3 µM | IC50 (second compound 0.316 µM): > 3 µM | IC50 (second compound 1 µM): > 3 µM | IC50 (second compound 3.16 µM): > 3 µM | IC50 (second compound 10 µM): > 3 µM | viability, T/C (second compound 0.1 µM, first compound 0.00949 µM): 118% | viability, T/C (second compound 0.1 µM, first compound 0.03 µM): 112% | viability, T/C (second compound 0.1 µM, first compound 0.0949 µM): 124% | viability, T/C (second compound 0.1 µM, first compound 0.3 µM): 94.7% | viability, T/C (second compound 0.1 µM, first compound 0.949 µM): 117% | viability, T/C (second compound 0.1 µM, first compound 3 µM): 95.9% | viability, T/C (second compound 0.316 µM, first compound 0.00949 µM): 99.5% | viability, T/C (second compound 0.316 µM, first compound 0.03 µM): 108% | viability, T/C (second compound 0.316 µM, first compound 0.0949 µM): 106% | viability, T/C (second compound 0.316 µM, first compound 0.3 µM): 109% | viability, T/C (second compound 0.316 µM, first compound 0.949 µM): 110% | viability, T/C (second compound 0.316 µM, first compound 3 µM): 104% | viability, T/C (second compound 1 µM, first compound 0.00949 µM): 125% | viability, T/C (second compound 1 µM, first compound 0.03 µM): 130% | viability, T/C (second compound 1 µM, first compound 0.0949 µM): 122% | viability, T/C (second compound 1 µM, first compound 0.3 µM): 118% | viability, T/C (second compound 1 µM, first compound 0.949 µM): 99.6% | viability, T/C (second compound 1 µM, first compound 3 µM): 115% | viability, T/C (second compound 3.16 µM, first compound 0.00949 µM): 158% | viability, T/C (second compound 3.16 µM, first compound 0.03 µM): 133% | viability, T/C (second compound 3.16 µM, first compound 0.0949 µM): 130% | viability, T/C (second compound 3.16 µM, first compound 0.3 µM): 148% | viability, T/C (second compound 3.16 µM, first compound 0.949 µM): 110% | viability, T/C (second compound 3.16 µM, first compound 3 µM): 124% | viability, T/C (second compound 10 µM, first compound 0.00949 µM): 112% | viability, T/C (second compound 10 µM, first compound 0.03 µM): 140% | viability, T/C (second compound 10 µM, first compound 0.0949 µM): 111% | viability, T/C (second compound 10 µM, first compound 0.3 µM): 116% | viability, T/C (second compound 10 µM, first compound 0.949 µM): 84.2% | viability, T/C (second compound 10 µM, first compound 3 µM): 72.3%

Cn1ncnc1C1c2n[nH]c(=O)c3cc(F)cc(c23)NC1c1ccc(F)cc1 (stereo not given) + Cc1cncc(-c2nc(NCCc3c[nH]c4ccccc34)c3ncn(C(C)C)c3n2)c1
IC50 (second compound 0.1 µM): > 0.1 µM | IC50 (second compound 0.316 µM): > 0.1 µM | IC50 (second compound 1 µM): > 0.1 µM | IC50 (second compound 3.16 µM): > 0.1 µM | IC50 (second compound 10 µM): > 0.1 µM | viability, T/C (second compound 0.1 µM, first compound 0.000316 µM): 114% | viability, T/C (second compound 0.1 µM, first compound 0.001 µM): 106% | viability, T/C (second compound 0.1 µM, first compound 0.00316 µM): 94.6% | viability, T/C (second compound 0.1 µM, first compound 0.01 µM): 109% | viability, T/C [1]: 93% | viability, T/C [2]: 83% | viability, T/C (second compound 0.316 µM, first compound 0.000316 µM): 105% | viability, T/C (second compound 0.316 µM, first compound 0.001 µM): 121% | viability, T/C (second compound 0.316 µM, first compound 0.00316 µM): 93.3% | viability, T/C (second compound 0.316 µM, first compound 0.01 µM): 110% | viability, T/C [7]: 87.6% | viability, T/C [8]: 101% | viability, T/C (second compound 1 µM, first compound 0.000316 µM): 122% | viability, T/C (second compound 1 µM, first compound 0.001 µM): 117% | viability, T/C (second compound 1 µM, first compound 0.00316 µM): 116% | viability, T/C (second compound 1 µM, first compound 0.01 µM): 127% | viability, T/C [13]: 116% | viability, T/C [14]: 99.5% | viability, T/C (second compound 3.16 µM, first compound 0.000316 µM): 114% | viability, T/C (second compound 3.16 µM, first compound 0.001 µM): 142% | viability, T/C (second compound 3.16 µM, first compound 0.00316 µM): 115% | viability, T/C (second compound 3.16 µM, first compound 0.01 µM): 119% | viability, T/C [19]: 122% | viability, T/C [20]: 107% | viability, T/C (second compound 10 µM, first compound 0.000316 µM): 134% | viability, T/C (second compound 10 µM, first compound 0.001 µM): 143% | viability, T/C (second compound 10 µM, first compound 0.00316 µM): 106% | viability, T/C (second compound 10 µM, first compound 0.01 µM): 105% | viability, T/C [25]: 111% | viability, T/C [26]: 104%

NS(=O)(=O)OCC1CC(n2ccc3c(NC4CCc5ccccc54)ncnc32)CC1O (stereo not given) + Cc1cncc(-c2nc(NCCc3c[nH]c4ccccc34)c3ncn(C(C)C)c3n2)c1
IC50 (second compound 0.1 µM): 0.968 µM | IC50 (second compound 0.316 µM): 1.17 µM | IC50 (second compound 1 µM): 1.25 µM | IC50 (second compound 3.16 µM): 1.24 µM | IC50 (second compound 10 µM): 0.0683 µM | viability, T/C [1]: 106% | viability, T/C [2]: 103% | viability, T/C [3]: 80.1% | viability, T/C [4]: 47.9% | viability, T/C [5]: 40.1% | viability, T/C [6]: 30.1% | viability, T/C [7]: 105% | viability, T/C [8]: 102% | viability, T/C [9]: 78.5% | viability, T/C [10]: 53.4% | viability, T/C [11]: 35.6% | viability, T/C [12]: 30.4% | viability, T/C [13]: 115% | viability, T/C [14]: 105% | viability, T/C [15]: 83.7% | viability, T/C [16]: 52.1% | viability, T/C [17]: 38% | viability, T/C [18]: 32.1% | viability, T/C [19]: 99.4% | viability, T/C [20]: 102% | viability, T/C [21]: 75.2% | viability, T/C [22]: 52.6% | viability, T/C [23]: 45% | viability, T/C [24]: 35.2% | viability, T/C [25]: 65.5% | viability, T/C [26]: 40.6% | viability, T/C [27]: 34.4% | viability, T/C [28]: 32.7% | viability, T/C [29]: 28.7% | viability, T/C [30]: 23.9%
